Columns and labels:
3T3-L1 adipocytes = assay: Relative biological activity as glucose transport in cultivated 3T3-L1 adipocytes; format: cell-based; conditions: compared with native insulin
Protocol: (§1) The receptor binding was determined by displacement studies on IM-9 lymphocytes. The relative biological activity was determined on cultivated 3T3-L1 adipocytes in the form of the glucose transport.

insulin receptors = target: T1, insulin receptors (Homo sapiens, UniProt P06213); assay: Receptor binding by displacement studies on IM-9 lymphocytes; conditions: compared with native insulin
T1 construct: endogenous in cells; host or cells: IM-9 lymphocytes
Protocol: as §1

[1] = literature value; cited from earlier work

T1 sequence (P06213 28-758 limits assumed): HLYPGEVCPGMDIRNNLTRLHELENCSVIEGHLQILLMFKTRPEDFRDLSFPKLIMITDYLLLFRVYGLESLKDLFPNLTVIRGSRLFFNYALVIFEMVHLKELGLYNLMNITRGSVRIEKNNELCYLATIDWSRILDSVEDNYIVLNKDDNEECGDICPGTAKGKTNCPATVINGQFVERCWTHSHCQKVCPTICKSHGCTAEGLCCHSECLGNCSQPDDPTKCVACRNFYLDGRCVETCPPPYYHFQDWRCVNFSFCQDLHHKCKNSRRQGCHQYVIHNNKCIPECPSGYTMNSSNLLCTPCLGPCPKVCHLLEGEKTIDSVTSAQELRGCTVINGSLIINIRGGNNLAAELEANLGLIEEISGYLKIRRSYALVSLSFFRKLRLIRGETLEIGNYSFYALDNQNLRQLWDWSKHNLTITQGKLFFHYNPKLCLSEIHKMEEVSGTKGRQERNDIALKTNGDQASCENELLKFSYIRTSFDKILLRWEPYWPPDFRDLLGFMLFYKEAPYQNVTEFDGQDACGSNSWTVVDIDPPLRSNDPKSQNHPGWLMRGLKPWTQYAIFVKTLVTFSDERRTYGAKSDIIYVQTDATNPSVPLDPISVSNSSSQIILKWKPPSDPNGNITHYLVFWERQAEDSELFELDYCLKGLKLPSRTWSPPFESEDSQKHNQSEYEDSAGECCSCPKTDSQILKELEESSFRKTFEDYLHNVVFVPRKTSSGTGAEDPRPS
T1 sequence (P06213 763-1382 partner limits assumed): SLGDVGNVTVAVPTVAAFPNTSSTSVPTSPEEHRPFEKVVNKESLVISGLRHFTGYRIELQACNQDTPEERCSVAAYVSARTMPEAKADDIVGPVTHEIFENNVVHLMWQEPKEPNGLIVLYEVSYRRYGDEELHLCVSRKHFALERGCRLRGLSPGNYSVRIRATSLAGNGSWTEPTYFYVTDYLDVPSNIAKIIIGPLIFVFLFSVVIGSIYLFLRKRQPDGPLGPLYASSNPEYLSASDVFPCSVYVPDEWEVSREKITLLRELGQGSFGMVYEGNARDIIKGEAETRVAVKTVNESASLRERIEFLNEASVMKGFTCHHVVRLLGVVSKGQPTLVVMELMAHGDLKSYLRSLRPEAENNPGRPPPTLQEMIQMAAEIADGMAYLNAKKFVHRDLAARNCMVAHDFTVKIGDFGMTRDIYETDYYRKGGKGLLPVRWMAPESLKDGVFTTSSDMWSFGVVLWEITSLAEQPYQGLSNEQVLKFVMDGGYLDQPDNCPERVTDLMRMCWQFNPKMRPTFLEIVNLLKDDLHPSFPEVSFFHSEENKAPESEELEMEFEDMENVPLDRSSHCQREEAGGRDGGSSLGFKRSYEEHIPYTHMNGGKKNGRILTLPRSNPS

Row | Substance | Rel. biol. activity (3T3-L1 adipocytes) [%] | Rel. receptor binding (insulin receptors) [%] | bioactivity in vitro [1] [%]
1 | B1,B1′-Sub-[Glu^B26}-des-(B27-B30)-insulin-B26-amide Insulin Dimer | 817.5 ± 224 | 176 ± 45.8 | 
2 | B1,B1′-suberoyl-insulin dimer |  |  | 28.8
3 | B1,B1′-Sub-[Sar^B26]-des-(B27-B30)-insulin-B26-amide Insulin Dimer | 1957 ± 575 | 412 ± 94.8 | 
